Read-outs that look alike come from different tables or passages of the source.
How the values were obtained:
Experiment in all cases: HOTSPOT radiometric kinase assay
PKCθ = biological target: T1, PKCθ (Homo sapiens, UniProt Q04759); assay type: biochemical; conditions: 2 μM, 10 μM ATP
T1 construct: purchased Reaction Biology Corp

CLK1 = biological target: T2, CLK1 (Homo sapiens, UniProt P49759); assay type: biochemical; conditions: 2 μM, 10 μM ATP
T2 construct: purchased Reaction Biology Corp

CLK2 = biological target: T3, CLK2 (Homo sapiens, UniProt P49760); assay type: biochemical; conditions: 10 μM ATP
T3 construct: purchased Reaction Biology Corp

STK39/STLK3 = biological target: T4, STK39/STLK3 (Homo sapiens, UniProt Q9UEW8); assay type: biochemical; conditions: 2 μM, 10 μM ATP
T4 construct: purchased Reaction Biology Corp

PKD2 = biological target: T5, PKD2 (Homo sapiens, UniProt Q9BZL6); assay type: biochemical; conditions: 10 μM ATP
T5 construct: purchased Reaction Biology Corp

LATS2 = biological target: T6, LATS2 (Homo sapiens, UniProt Q9NRM7); assay type: biochemical; conditions: 10 μM ATP
T6 construct: purchased Reaction Biology Corp
T6 sequence (Q9NRM7 whole entry): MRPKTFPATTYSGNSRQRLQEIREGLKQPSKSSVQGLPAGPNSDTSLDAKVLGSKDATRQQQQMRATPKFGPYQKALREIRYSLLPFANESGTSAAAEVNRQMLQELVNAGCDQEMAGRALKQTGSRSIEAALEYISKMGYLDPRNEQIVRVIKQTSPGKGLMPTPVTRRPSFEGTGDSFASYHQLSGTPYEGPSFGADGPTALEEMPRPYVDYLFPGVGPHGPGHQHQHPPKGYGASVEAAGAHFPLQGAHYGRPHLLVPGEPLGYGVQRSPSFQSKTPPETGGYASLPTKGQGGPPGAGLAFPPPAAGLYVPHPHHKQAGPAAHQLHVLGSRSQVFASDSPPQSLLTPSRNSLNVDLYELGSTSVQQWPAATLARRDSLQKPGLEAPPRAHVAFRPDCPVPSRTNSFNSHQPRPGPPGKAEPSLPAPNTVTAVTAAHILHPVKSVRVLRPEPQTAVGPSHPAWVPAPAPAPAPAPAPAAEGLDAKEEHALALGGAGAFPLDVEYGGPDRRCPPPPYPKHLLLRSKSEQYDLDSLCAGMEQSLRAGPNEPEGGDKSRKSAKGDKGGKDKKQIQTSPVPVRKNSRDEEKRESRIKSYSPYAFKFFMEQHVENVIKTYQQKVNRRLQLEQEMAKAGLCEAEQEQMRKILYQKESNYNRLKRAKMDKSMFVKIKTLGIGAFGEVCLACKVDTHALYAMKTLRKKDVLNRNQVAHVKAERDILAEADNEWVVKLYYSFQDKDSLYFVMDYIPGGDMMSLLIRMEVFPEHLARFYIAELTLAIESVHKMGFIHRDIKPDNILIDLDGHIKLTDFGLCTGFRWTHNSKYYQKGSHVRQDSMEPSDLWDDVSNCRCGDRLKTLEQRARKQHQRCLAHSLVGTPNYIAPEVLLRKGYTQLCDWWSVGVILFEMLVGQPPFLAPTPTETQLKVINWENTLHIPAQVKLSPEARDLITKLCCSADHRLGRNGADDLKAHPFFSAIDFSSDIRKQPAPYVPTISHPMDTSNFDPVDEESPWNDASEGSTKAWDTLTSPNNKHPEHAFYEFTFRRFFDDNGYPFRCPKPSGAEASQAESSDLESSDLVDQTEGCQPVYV

PKCε = biological target: T7, PKCε (Homo sapiens, UniProt Q02156); assay type: biochemical; conditions: 10 μM ATP
T7 construct: purchased Reaction Biology Corp
T7 sequence (Q02156 whole entry): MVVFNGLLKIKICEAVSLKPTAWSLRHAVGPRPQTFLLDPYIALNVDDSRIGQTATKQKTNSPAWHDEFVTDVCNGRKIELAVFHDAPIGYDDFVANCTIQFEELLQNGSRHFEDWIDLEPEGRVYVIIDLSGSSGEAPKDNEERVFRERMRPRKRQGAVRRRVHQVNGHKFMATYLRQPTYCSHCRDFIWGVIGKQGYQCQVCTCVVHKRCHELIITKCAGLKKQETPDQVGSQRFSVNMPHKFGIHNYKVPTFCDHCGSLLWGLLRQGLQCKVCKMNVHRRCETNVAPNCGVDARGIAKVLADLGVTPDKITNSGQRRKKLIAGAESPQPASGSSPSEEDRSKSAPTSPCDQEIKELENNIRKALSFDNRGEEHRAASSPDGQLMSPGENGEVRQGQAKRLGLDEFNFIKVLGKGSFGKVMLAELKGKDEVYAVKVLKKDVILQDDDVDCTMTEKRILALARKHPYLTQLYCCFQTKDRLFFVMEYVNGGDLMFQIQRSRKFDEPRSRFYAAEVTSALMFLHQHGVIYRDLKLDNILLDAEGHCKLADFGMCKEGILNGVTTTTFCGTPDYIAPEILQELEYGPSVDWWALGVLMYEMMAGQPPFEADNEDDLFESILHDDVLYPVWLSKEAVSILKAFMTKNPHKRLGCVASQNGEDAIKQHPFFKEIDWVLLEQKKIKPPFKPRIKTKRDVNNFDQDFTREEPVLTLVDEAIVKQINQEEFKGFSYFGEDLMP

HASPIN = biological target: T8, HASPIN (Homo sapiens, UniProt Q8TF76); assay type: biochemical; conditions: 10 μM ATP
T8 construct: purchased Reaction Biology Corp

DYRK1B = DYRK1B (Homo sapiens, UniProt Q9Y463); assay type: biochemical
Sequence of DYRK1B (Q9Y463 whole entry): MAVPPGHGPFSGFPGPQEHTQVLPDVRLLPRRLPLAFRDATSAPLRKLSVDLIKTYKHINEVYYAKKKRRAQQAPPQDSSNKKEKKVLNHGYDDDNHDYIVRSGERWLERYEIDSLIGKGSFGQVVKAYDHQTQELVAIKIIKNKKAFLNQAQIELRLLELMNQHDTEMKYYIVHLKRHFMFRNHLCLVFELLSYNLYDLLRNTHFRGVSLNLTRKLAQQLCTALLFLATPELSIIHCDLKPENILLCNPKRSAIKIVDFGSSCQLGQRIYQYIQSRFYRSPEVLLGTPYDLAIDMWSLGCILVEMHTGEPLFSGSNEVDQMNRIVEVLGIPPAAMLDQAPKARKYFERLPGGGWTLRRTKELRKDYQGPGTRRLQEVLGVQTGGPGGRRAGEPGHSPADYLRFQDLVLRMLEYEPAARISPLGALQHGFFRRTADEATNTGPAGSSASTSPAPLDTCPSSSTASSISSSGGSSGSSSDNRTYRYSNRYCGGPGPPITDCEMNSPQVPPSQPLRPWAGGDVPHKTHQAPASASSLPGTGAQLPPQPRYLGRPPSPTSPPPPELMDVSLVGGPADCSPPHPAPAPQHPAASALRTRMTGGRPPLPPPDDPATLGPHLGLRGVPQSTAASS

FLT3 = biological target: T9, FLT3 (Homo sapiens, UniProt P36888); assay type: biochemical
T9 construct: purchased Reaction Biology Corp
T9 sequence (P36888 27-993): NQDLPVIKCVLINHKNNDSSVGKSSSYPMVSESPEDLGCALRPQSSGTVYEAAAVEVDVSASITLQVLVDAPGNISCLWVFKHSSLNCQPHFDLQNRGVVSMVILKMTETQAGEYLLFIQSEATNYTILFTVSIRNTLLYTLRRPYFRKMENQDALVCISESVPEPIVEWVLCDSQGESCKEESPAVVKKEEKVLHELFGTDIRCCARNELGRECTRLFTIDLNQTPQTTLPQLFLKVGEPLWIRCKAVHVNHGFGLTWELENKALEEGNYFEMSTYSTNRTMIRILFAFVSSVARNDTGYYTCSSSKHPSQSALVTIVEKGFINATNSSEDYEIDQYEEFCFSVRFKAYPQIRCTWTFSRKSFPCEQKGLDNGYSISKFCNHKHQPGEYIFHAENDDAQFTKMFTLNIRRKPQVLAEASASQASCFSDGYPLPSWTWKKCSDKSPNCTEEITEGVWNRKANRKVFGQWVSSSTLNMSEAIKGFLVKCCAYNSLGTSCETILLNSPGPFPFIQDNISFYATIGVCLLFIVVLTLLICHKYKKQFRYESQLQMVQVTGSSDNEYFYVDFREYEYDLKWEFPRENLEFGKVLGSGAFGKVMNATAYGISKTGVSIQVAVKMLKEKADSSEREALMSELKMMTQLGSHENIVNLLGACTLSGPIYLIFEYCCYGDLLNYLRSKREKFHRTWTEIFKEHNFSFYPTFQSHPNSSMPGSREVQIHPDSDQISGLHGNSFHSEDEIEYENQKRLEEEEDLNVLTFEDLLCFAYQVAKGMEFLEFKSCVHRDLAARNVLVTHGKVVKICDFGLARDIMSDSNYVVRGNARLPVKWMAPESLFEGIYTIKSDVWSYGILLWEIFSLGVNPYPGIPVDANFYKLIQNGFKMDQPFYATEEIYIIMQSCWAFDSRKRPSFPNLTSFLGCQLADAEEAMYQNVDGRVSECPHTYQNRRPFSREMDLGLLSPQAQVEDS

PKCμ/PKD1 = biological target: T10, PKCμ/PKD1 (Homo sapiens, UniProt Q15139); assay type: biochemical; conditions: 10 μM ATP
T10 construct: purchased Reaction Biology Corp

NLK = biological target: T11, NLK (Homo sapiens, UniProt Q9UBE8); assay type: biochemical; conditions: 10 μM ATP
T11 construct: purchased Reaction Biology Corp

DYRK3 = biological target: T12, DYRK3 (Homo sapiens, UniProt O43781); assay type: biochemical
T12 construct: purchased Reaction Biology Corp
T12 sequence (O43781 1-588): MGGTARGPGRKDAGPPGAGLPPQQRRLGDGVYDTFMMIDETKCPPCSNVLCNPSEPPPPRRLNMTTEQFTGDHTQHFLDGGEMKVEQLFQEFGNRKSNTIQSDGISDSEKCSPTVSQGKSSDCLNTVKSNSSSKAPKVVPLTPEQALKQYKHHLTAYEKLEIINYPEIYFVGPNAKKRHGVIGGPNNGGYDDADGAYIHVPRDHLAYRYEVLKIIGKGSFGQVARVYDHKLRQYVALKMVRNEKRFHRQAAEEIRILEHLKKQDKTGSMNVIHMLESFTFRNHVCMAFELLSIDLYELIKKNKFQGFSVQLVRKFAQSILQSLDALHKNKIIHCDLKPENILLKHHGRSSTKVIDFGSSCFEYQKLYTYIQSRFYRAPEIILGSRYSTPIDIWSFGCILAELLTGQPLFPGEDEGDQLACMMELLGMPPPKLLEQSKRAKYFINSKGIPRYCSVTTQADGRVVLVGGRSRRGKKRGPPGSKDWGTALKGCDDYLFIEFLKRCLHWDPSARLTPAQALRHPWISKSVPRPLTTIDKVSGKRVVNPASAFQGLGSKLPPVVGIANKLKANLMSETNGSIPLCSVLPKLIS

WNK1 = biological target: T13, WNK1 (Homo sapiens, UniProt Q9H4A3); assay type: biochemical; conditions: 10 μM ATP
T13 construct: purchased Reaction Biology Corp

MST3 = biological target: T14, MST3 (Homo sapiens, UniProt Q9Y6E0); assay type: biochemical; conditions: 10 μM ATP
T14 construct: purchased Reaction Biology Corp

EPHB3 = biological target: T15, EPHB3 (Homo sapiens, UniProt P54753); assay type: biochemical; conditions: 10 μM ATP
T15 construct: purchased Reaction Biology Corp

CDK9 = biological target: T16, CDK9 (Homo sapiens, UniProt P50750); assay type: biochemical; conditions: 50 nM, 10 μM ATP
T16 construct: purchased Reaction Biology Corp

DYRK4 = biological target: T17, DYRK4 (Homo sapiens, UniProt Q9NR20); assay type: biochemical; conditions: 10 μM ATP
T17 construct: purchased Reaction Biology Corp

MAP2K1 (MEK1) = MAP2K1 (MEK1) (Homo sapiens, UniProt Q02750)
CK1α1 = CK1α1 (Homo sapiens, UniProt P48729)
ERBB2/HER2 = ERBB2/HER2 (Homo sapiens, UniProt P04626)
Sequence of ERBB2/HER2 (P04626 23-1255): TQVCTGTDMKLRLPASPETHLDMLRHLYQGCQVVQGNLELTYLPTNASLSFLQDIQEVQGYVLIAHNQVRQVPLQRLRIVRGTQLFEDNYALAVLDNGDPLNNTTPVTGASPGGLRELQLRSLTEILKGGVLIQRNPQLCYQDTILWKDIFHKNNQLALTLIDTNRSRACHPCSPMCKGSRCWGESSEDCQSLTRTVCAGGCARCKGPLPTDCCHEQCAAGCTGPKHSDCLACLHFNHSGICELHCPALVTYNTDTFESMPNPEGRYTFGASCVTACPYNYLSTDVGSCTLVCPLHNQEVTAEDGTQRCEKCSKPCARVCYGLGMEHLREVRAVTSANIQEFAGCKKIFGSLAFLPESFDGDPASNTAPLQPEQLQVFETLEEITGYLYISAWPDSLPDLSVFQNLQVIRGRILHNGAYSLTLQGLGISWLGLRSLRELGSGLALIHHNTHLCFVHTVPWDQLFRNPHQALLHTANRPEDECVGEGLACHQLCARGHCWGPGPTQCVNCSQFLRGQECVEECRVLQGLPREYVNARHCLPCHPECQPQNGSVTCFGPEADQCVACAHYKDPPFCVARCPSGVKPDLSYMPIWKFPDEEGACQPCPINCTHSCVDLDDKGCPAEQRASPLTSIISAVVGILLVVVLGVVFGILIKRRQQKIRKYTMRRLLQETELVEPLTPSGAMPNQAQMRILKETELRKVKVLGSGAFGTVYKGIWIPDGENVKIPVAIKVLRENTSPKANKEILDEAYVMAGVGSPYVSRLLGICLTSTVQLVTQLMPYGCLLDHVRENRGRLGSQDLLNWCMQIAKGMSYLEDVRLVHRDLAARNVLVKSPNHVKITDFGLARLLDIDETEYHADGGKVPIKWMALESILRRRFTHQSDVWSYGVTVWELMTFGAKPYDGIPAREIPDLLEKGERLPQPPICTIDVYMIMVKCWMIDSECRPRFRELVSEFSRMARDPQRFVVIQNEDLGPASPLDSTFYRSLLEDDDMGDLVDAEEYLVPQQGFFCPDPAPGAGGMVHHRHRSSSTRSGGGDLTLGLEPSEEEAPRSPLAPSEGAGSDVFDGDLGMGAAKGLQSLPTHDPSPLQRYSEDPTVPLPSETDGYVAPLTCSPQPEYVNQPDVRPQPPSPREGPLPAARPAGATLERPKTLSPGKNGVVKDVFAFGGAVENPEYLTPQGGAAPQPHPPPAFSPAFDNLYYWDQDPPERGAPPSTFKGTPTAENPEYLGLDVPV

ERK1 = ERK1 (Homo sapiens, UniProt P27361)
Sequence of ERK1 (P27361 whole entry): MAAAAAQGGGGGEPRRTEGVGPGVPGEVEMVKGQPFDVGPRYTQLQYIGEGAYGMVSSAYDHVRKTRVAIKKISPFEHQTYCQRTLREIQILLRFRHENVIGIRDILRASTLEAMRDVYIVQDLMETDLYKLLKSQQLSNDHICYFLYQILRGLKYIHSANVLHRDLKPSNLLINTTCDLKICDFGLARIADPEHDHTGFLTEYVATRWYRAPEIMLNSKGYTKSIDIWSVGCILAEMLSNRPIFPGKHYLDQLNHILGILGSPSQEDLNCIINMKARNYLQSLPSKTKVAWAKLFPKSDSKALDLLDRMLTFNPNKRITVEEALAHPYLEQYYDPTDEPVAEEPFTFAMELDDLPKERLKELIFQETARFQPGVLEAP

PKCα = PKCα (Homo sapiens, UniProt P17252)

Cn1cncc1C1=CN(c2ncnc3nc[nH]c23)CCS1 [Compound 1, Aplithianine A]
inhibition at 2 µM (PKCθ): 97.9%
inhibition at 2 µM (CLK1): 97.3%
inhibition at 2 µM (CLK2): 97.8%
inhibition at 2 µM (STK39/STLK3): 87.3%
inhibition at 0.05 µM (PKD2; 50 nM): 38.2%
inhibition at 2 µM (PKD2; 2 μM): 93.1%
inhibition at 0.05 µM (LATS2; 50 nM): 34.2%
inhibition at 2 µM (LATS2; 2 μM): 92.9%
inhibition at 0.05 µM (PKCε; 50 nM): 25.8%
inhibition at 2 µM (PKCε; 2 μM): 92.7%
inhibition at 0.05 µM (HASPIN; 50 nM): 25.6%
inhibition at 2 µM (HASPIN; 2 μM): 88.4%
inhibition at 0.05 µM (DYRK1B; 50 nM, 10 μM ATP): 22.7%
inhibition at 2 µM (DYRK1B; 2 μM, 10 μM ATP): 95.3%
IC50 (DYRK1B; 10 μM ATP, read-out: DYRK1B IC50): 0.134 µM
DYRK1B Differential (as compared to PKG1a) (DYRK1B; IC50 (kinase)/IC50 (PKG1a)): 11.87
IC50 (DYRK1B; Table 4 dose-response, read-out: DYRK1B IC50 Values): 0.135 µM
inhibition at 0.05 µM (FLT3; 50 nM, 10 μM ATP): 22.2%
inhibition at 2 µM (FLT3; read-out: FLT3 % inhibition): 88.1%
inhibition at 0.05 µM (PKCμ/PKD1; 50 nM): 21.3%
inhibition at 2 µM (PKCμ/PKD1; 2 μM): 89.2%
inhibition at 0.05 µM (NLK; 50 nM): 19.6%
inhibition at 2 µM (NLK; 2 μM): 43%
inhibition at 0.05 µM (DYRK3; 50 nM, 10 μM ATP): 15.9%
inhibition at 2 µM (DYRK3; 2 μM, 10 μM ATP): 90.9%
IC50 (DYRK3; 10 μM ATP, read-out: DYRK3 IC50): 0.202 µM
DYRK3 Differential (as compared to PKG1a) (DYRK3; IC50 (kinase)/IC50 (PKG1a)): 19.13
IC50 (DYRK3; Table 4 dose-response, read-out: DYRK3 IC50 Values): 0.218 µM
inhibition at 0.05 µM (WNK1; 50 nM): 14.1%
inhibition at 2 µM (WNK1; 2 μM): 10.7%
inhibition at 0.05 µM (MST3; 50 nM): 13.2%
inhibition at 2 µM (MST3; 2 μM): -15.6%
inhibition at 0.05 µM (EPHB3; 50 nM): 12.8%
inhibition at 2 µM (EPHB3; 2 μM): 20.2%
inhibition at 0.05 µM (CDK9): 12.4%
IC50 (DYRK4): 15.2 µM
IC50 (MAP2K1 (MEK1)): 18 to 65 µM
IC50 (MAP2K1 (MEK1); read-out: MAP2K1 / MEK1 IC50, 10 μM ATP): 23.6 µM
IC50 (CK1α1): 0.8 to 6.6 µM
IC50 (CK1α1; read-out: CK1α1 IC50, 10 μM ATP): 1.83 µM
IC50 (ERBB2/HER2): 18 to 65 µM
IC50 (ERBB2/HER2; read-out: ERBB2/HER2 IC50, 10 μM ATP): 26.4 µM
IC50 (ERK1): 0.8 to 6.6 µM
IC50 (ERK1; read-out: ERK1 IC50, 10 μM ATP): 5.71 µM
IC50 (PKCα): 0.8 to 6.6 µM
IC50 (PKCα; read-out: PKCα IC50, 10 μM ATP): 1.32 µM

Source: patent US20260184713A1, “KINASE INHIBITORS” (The United States of America, as represented by the …, priority 2022, published 2026)
